Data as given in US20130071854A1, “METHODS FOR THE IDENTIFICATION AND CHARACTERIZATION OF HDAC INTERACTING COMPOUNDS” (priority 2009, published 2013).
Read-outs that look alike come from different tables or passages of the source.

What was measured:
RERE = assay: Chemoproteomic binding profiling, K562 cell extract, SAHA/ITF2357 probe matrix (Kd app), ELSA (ELM-SANT) domain protein; set-up: species or system human; details: protein RERE; ELSA (ELM-SANT) domain proteins
[1] = target: T1, non-HDAC targets (e.g. BZW2, ISOC2, aldehyde dehydrogenases) (Homo sapiens, UniProt O94788); assay: Chemoproteomic binding profiling, K562 cell extract, SAHA/ITF2357 probe matrix (Kd app); details: protein ALDH1A2; selected HDACi off-targets
T1 construct: endogenous in cells; host or cells: K562 whole cell extract
T1 sequence (O94788 1-518): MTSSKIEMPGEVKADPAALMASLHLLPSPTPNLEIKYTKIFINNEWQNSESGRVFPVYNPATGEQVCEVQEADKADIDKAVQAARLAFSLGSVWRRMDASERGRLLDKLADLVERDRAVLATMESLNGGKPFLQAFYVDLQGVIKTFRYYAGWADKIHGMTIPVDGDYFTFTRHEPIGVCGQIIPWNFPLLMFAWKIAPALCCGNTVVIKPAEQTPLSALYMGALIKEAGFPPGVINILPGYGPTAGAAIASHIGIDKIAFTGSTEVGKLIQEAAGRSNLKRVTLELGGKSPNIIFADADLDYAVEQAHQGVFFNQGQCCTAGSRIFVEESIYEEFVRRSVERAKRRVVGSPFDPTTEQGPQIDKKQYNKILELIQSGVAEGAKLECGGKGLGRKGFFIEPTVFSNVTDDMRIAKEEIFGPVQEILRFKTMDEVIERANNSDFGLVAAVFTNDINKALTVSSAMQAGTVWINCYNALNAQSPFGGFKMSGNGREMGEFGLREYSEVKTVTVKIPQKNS

[2] = target: T2, non-HDAC targets (e.g. BZW2, ISOC2, aldehyde dehydrogenases) (Homo sapiens, UniProt Q96AB3); assay: as above; details: protein ISOC2; selected HDACi off-targets
T2 construct: endogenous in cells; host or cells: K562 whole cell extract
T2 sequence (Q96AB3 1-205): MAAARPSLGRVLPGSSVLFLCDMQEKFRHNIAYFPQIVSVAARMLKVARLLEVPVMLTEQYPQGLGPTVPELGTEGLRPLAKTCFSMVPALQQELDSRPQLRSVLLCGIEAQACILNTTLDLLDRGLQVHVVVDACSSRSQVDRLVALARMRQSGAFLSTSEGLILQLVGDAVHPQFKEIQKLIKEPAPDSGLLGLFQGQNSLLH

[3] = target: T3, non-HDAC targets (e.g. BZW2, ISOC2, aldehyde dehydrogenases) (Homo sapiens, UniProt Q9Y6E2); assay: as above; details: protein BZW2; selected HDACi off-targets
T3 construct: endogenous in cells; host or cells: K562 whole cell extract
T3 sequence (Q9Y6E2 1-419): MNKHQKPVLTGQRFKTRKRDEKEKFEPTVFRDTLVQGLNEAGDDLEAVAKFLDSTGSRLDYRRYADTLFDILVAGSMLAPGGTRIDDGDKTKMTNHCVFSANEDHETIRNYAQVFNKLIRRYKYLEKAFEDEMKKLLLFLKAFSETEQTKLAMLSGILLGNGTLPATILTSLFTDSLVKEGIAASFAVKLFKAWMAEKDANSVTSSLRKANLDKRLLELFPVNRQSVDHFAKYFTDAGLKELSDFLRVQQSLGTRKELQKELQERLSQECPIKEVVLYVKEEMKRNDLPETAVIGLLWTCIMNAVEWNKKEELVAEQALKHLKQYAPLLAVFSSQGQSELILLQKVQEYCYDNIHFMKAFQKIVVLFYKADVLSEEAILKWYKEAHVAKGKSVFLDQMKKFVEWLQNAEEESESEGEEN

[4] = target: T4, non-HDAC targets (e.g. BZW2, ISOC2, aldehyde dehydrogenases) (Homo sapiens, UniProt Q08209); assay: as above; details: protein PPP3CA; selected HDACi off-targets
T4 construct: Kd^app PPP3CA; other: protein PPP3CA; selected HDACi off-targets

[5] = target: T5, non-HDAC targets (e.g. BZW2, ISOC2, aldehyde dehydrogenases) (Homo sapiens, UniProt P16152); assay: as above; details: protein CBR1; selected HDACi off-targets
T5 construct: Kd^app CBR1; other: protein CBR1; selected HDACi off-targets
T5 sequence (P16152 1-277): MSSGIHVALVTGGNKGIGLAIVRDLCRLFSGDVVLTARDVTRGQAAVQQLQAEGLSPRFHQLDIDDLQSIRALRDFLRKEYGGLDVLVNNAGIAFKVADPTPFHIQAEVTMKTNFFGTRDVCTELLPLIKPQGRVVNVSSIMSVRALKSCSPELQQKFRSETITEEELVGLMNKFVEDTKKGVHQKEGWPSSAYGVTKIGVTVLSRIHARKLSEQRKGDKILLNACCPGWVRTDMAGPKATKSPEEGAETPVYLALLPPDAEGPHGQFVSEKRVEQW

NuRD complex = assay: as above; set-up: species or system human
HDAC10 = target: T6, HDAC10 (Homo sapiens, UniProt Q969S8); assay: as above; details: for binding profile for HDAC10 (in words): K562 cell extract
T6 construct: used to probe endogenous HDACs in K562 whole cell extracts; endogenous in cells
T6 sequence (Q969S8 1-669): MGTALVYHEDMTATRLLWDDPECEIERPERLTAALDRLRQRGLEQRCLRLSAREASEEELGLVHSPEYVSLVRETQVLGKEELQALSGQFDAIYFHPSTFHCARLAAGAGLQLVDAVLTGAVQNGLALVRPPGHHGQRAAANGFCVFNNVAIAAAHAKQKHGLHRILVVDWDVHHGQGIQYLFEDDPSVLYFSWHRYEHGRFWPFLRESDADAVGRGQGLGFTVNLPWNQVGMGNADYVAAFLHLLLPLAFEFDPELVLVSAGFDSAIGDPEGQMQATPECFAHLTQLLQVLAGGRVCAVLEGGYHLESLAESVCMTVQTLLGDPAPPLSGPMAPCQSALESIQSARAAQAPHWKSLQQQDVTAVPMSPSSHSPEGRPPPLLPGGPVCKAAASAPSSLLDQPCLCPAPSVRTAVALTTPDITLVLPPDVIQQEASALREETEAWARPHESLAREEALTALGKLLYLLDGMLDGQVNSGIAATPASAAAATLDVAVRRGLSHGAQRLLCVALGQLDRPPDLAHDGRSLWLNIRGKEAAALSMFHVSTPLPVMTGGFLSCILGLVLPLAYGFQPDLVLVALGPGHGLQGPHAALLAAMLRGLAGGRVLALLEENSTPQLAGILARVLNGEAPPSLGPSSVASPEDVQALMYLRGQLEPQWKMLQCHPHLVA

[6] = protein CHD4, NuRD complex, read-out: Kd^app CHD4
[7] = protein GATAD2A, NuRD complex, read-out: Kd^app GATAD2A
[8] = protein GATAD2B, NuRD complex, read-out: Kd^app GATAD2B
[9] = protein MBD2, NuRD complex, read-out: Kd^app MBD2
[10] = protein MBD3, NuRD complex, read-out: Kd^app MBD3
[11] = protein MTA1, NuRD complex, read-out: Kd^app MTA1
[12] = protein MTA3, NuRD complex, read-out: Kd^app MTA3
[13] = protein HDAC10, class II HDAC, read-out: Kd^app HDAC10
[14] = protein MTA2, NuRD complex, read-out: Kd^app MTA2

Structure (SMILES) | Kd (RERE) | Kd [1] | Kd [2] | Kd [3] | Kd [4] | Kd [5] | Kd (NuRD complex; [6]) | Kd (NuRD complex; [7]) | Kd (NuRD complex; [8]) | Kd (NuRD complex; [9]) | Kd (NuRD complex; [10]) | Kd (NuRD complex; [11]) | Kd (NuRD complex; [12]) | binding profile for HDAC10 (in words) (HDAC10) | Kd (HDAC10; [13]) | Kd (NuRD complex; [14]) | further results
Nc1ccccc1NC(=O)CCCCCCC(=O)Nc1ccccc1 [BML-210] | > 85 µM | > 85 µM | > 85 µM | > 85 µM | > 85 µM | > 85 µM | 30 µM | > 85 µM | 69 µM | 83 µM | 59 µM | 15 µM | 69 µM | complete loss of potency for class IIb | > 85 µM |  | 
Nc1ccccc1NC(=O)c1ccc(CNC(=O)OCc2cccnc2)cc1 [MS-275] | > 300 µM | > 300 µM | > 300 µM | > 300 µM | > 300 µM | > 300 µM |  |  |  |  |  |  |  |  |  |  | Kd (NuRD complex; read-out: Kd^app CHD4): > 300 µM; Kd (NuRD complex; read-out: Kd^app GATAD2A): > 300 µM; Kd (NuRD complex; read-out: Kd^app GATAD2B): > 300 µM; Kd (NuRD complex; read-out: Kd^app MBD2): > 300 µM; Kd (NuRD complex; read-out: Kd^app MBD3): > 300 µM; Kd (NuRD complex; read-out: Kd^app MTA1): > 300 µM; Kd (NuRD complex; read-out: Kd^app MTA2): > 300 µM; Kd (NuRD complex; read-out: Kd^app MTA3): > 300 µM
O=C(CCCCCCC(=O)Nc1ccccc1)NO [SAHA, suberoylanilide hydroxamic acid] |  |  |  |  | > 10 µM | > 10 µM |  |  |  |  |  |  |  |  |  |  | 
O=C(/C=C/c1cccc(S(=O)(=O)Nc2ccccc2)c1)NO [belinostat] |  | > 10 µM | > 10 µM | 2.25 µM | 3.5 µM | 1.98 µM |  |  |  |  |  |  |  |  |  |  | Kd (HDAC10): 4.43 µM
CCCCOc1ccc(CC(=O)NO)cc1 [bufexamac] | 33 µM | 3 µM | 3 µM | 3 µM | 304 µM | 149 µM | 386 µM | 572 µM | > 59.7 µM |  | 409 µM | 168 µM | 626 µM | selectivity for HDAC6 and HDAC10 | 10 µM | 555 µM | 
CCCC(CCC)C(=O)O [valproate, valproic acid] | 3120 µM | > 10 µM | > 10 µM | > 10 µM | > 10 µM | > 10 µM | 544 µM | 1040 µM | 843 µM | 1300 µM | 930 µM | 528 µM | 667 µM |  | > 10 µM | 997 µM | 
